# Values of other authors in patent publication US20230243814A1, “CHEMICAL CLAS[…] AND METHOD FOR PLANTS” (priority 2020, published 2023).
# Where two headings read alike, the source gives them in different places.
# Columns and labels:
# [1] = relative magnitude of the activity in words
# [2] = relative magnitude of the activity in words; remark: listed apart in the source
# [3] = relative magnitude of the activity in words; remark: listed apart in the source
# [4] = relative magnitude of the activity in words; remark: listed apart in the source
# [5] = test system: GABA A; settings: relative magnitude of the activity in words
# [6] = relative magnitude of the activity in words; remark: listed apart in the source
# [7] = test system: brain wave (EEG) activity; settings: for alpha wave boost: focus / beta wave boost: creativity: relative magnitude in words; for alpha wave activity (EEG) / beta and other absolute wave activity (EEG) / beta wave activity (EEG): inhalation; as to alpha wave activity (EEG): test concentration or dose not given here; as to beta and other absolute wave activity (EEG): test concentration or dose not given here; as to beta wave activity (EEG): test concentration or dose not given here
# [8] = target: AChE (acetylcholinesterase) (Homo sapiens, UniProt P22303); settings: relative magnitude of the activity in words
# [9] = relative magnitude of the activity in words; remark: listed apart in the source
# [10] = relative magnitude of the activity in words; remark: listed apart in the source
# Sequence of AChE (acetylcholinesterase) (P22303 32-614, species assumed): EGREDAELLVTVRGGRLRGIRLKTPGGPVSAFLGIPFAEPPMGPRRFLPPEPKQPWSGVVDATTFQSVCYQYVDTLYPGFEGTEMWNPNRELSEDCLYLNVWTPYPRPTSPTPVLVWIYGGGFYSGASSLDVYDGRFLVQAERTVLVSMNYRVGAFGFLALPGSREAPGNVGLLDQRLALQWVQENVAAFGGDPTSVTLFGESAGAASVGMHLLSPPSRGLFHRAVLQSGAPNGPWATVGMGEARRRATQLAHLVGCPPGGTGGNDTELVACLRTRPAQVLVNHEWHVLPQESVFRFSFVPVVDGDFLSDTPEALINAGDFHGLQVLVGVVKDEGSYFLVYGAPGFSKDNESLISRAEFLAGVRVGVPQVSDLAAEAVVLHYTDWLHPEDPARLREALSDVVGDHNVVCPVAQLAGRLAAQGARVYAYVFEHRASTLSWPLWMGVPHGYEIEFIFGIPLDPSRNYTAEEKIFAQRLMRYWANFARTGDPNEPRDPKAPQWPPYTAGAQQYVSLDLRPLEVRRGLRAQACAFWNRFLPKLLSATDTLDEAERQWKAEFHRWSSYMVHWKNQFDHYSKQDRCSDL
Compound,analgesic pain relief [1],sedative [2],antinociceptive pain blocker [3],AChEl [8],further results
CC1=CCC2CC1C2(C)C (stereo not drawn) [alpha pinene],weak,agonistic,no notable,very strong,anti anxiety [4]: moderate; GABA A Modulation [5]: moderate; motor stimulation (EPM) [6]: moderate; alpha wave boost: focus ([7]; no gender qualifier): moderate; beta wave boost: creativity ([7]; women only): very strong; anti depressant [9]: moderate
C=CCc1ccc(O)c(OC)c1 [eugenol],,,very strong,,
CC12CCC(CC1)C(C)(C)O2 [eucalyptol],,,no notable,very strong,
CC1=CC[C@H](C(C)C)C=C1 [alpha phellandrene],moderate,no notable,very strong,no notable,anti depressant [9]: moderate
C=CC(=C)CCC=C(C)C [beta myrcene],moderate,weak,no notable,no notable,muscle relaxant [10]: moderate
C=C(C)[C@H]1CC=C(C)CC1 [limonene],moderate,,no notable,agonistic,beta wave boost: creativity ([7]; women only): very strong; anti depressant [9]: moderate
C=CC(C)(O)CCC=C(C)CCC=C(C)C (centres unmarked) [nerolidol],moderate,very strong,very strong,no notable,anti anxiety [4]: very strong
CC1=CCC2C(C1)C2(C)C (centres unmarked) [3 carene],no notable,,no notable,very strong,
CC12CCC(C1)C(C)(C)C2O (centres unmarked) [fenchol],no notable,moderate,no notable,no notable,
C=C1C2CCC(C2)C1(C)C (centres unmarked) [camphene],no notable,moderate,no notable,no notable,
C=C1CCC2CC1C2(C)C (stereo not drawn) [beta pinene],moderate,moderate,no notable,no notable,beta wave boost: creativity ([7]; women only): very strong; anti depressant [9]: moderate
(+) alpha pinene,,,,,"alpha wave activity (EEG) ([7]; men): no impact on alpha waves; beta and other absolute wave activity (EEG) ([7]; men): significant decreases in absolute waves such as theta, beta, low beta and high beta; alpha wave activity (EEG) ([7]; women): significantly (P<0.05) increased; beta wave activity (EEG) ([7]; women): absolute beta wave and absolute high beta wave activity significantly (P<0.05) increased"
C[C@H]1CC[C@@H](C(C)(C)O)CC2=C1CC[C@@H]2C [guiaol],,no notable,no notable,no notable,
"C=C(C)C1CC=C(C)CC1 (single isomer, unassigned; (+)) [(+) limonene]",,,,,beta wave activity (EEG) ([7]; all subjects): increase relative high beta wave activity; alpha wave activity (EEG) ([7]; men): no increase in alpha wave activity; beta and other absolute wave activity (EEG) ([7]; men): relative high beta activity increase; alpha wave activity (EEG) ([7]; women): increased absolute fast alpha wave activity; beta wave activity (EEG) ([7]; women): decreased relative mid beta wave activity
CC1=CC[C@@H](C(C)(C)O)CC1 [alpha terpineol],very strong,moderate,very strong,no notable,muscle relaxant [10]: very strong
C=C/C(C)=C/CC=C(C)C [beta ocimene],no notable,,no notable,very strong,
CC1=CCC(=C(C)C)CC1 [terpinolene],no notable,weak,no notable,no notable,alpha wave activity (EEG) ([7]; all subjects): increase relative fast alpha wave activity; beta wave activity (EEG) ([7]; all subjects): decrease mid beta wave activity; alpha wave activity (EEG) ([7]; men): no increase in alpha wave activity; beta and other absolute wave activity (EEG) ([7]; men): decrease in relative mid beta wave activity; alpha wave activity (EEG) ([7]; women): increased absolute fast alpha wave activity; alpha wave boost: focus ([7]; women only): very strong; muscle relaxant [10]: moderate
CC(C)=CCC[C@](C)(O)[C@@H]1CC=C(C)CC1 [a bisabolol],no notable,no notable,very strong,no notable,muscle relaxant [10]: very strong
CC1=CC=C(C(C)C)CC1 [alpha terpinene],,,no notable,very strong,
C=CC(=C)CC/C=C(\C)CCC=C(C)C [beta farnesene],no notable,,no notable,,
C/C1=C\CC/C(C)=C/CC(C)(C)/C=C/C1 [humulene],no notable,no notable,no notable,no notable,
C=C1CC/C=C(\C)CC[C@@H]2[C@@H]1CC2(C)C [beta caryophyllene],moderate,no notable,no notable,no notable,anti anxiety [4]: moderate; anti depressant [9]: moderate
C=C/C(C)=C/C/C=C(\C)CCC=C(C)C [alpha farnesene],no notable,,no notable,,
C=CC(C)(O)CCC=C(C)C (centres unmarked) [linalool],moderate,very strong,very strong,no notable,anti anxiety [4]: very strong; GABA A Modulation [5]: very strong; anti depressant [9]: very strong
(+) beta pinene,,,,,alpha wave activity (EEG) ([7]; men): no impact on alpha waves; beta and other absolute wave activity (EEG) ([7]; men): no significant changes in the absolute waves; alpha wave activity (EEG) ([7]; women): significantly increased; beta wave activity (EEG) ([7]; women): significantly increased
